From patent publication US8822519B2, “Compound with agitation effect on peroxisome proliferator-activated receptor process for its preparation and use thereof” (Zhejiang Hisun Pharmaceutical Co., Ltd., priority 2008, dated 2014)
Values belong to the compound of their own block, whether it stands above or below them.

Tests used:
[1] = biological target: T1, PPARδ (Homo sapiens, UniProt Q03181); test: In vitro screening of nuclear receptor agonist: luciferase reporter gene assay in HepG2 cells; assay type: cell-based; details: RXR/PPARδ luciferase reporter gene, 24 h treatment
T1 construct: expressed in transfected cells; host or cells: HepG2 (human hepatocarcinoma, ATCC)
T1 sequence (Q03181 1-441): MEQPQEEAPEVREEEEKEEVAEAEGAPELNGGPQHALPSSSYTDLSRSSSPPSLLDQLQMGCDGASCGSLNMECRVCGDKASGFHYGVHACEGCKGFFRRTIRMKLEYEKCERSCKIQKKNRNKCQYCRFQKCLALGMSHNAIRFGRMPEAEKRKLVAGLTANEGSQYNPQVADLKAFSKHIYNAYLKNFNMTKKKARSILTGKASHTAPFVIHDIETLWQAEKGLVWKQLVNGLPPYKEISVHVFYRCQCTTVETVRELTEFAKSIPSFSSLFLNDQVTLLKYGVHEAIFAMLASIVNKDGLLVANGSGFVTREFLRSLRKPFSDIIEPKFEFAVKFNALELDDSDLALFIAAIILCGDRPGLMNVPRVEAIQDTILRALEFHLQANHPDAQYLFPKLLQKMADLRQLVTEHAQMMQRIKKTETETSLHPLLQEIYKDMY
T1 sequence (P19793 1-462 partner): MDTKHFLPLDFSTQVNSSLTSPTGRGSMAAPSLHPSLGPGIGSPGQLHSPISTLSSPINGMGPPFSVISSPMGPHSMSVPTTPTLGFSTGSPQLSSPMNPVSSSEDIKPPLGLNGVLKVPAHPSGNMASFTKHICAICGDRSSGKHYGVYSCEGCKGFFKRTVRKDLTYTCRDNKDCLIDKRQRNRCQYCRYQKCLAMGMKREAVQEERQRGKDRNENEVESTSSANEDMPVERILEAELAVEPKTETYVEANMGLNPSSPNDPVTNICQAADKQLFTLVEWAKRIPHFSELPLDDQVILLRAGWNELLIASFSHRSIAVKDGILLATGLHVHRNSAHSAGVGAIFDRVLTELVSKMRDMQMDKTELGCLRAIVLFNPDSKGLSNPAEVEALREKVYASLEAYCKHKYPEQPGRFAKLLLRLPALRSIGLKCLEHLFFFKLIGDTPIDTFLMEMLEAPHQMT
Excerpt: Using a reporter gene protocol, the screening model for screening a nuclear receptor agonist in a living cell is designed on a basis of the principal that an activated nuclear receptor can activate transcription of its downstream gene. A reporter gene plasmid is constructed, in which the DNA binding sequence for the nuclear receptor (NRE) is inserted upstream of the luciferase gene, so that the expression of the luciferase gene is placed under the control of the nuclear receptor. Then, the reporter gene plasmid and the nuclear receptor are simultaneously transferred into a cell, and the nuclear receptor is activated when the nuclear receptor agonist is present in the cell culture medium. Then the activated receptor is able to induce the expression of the luciferase gene, while the amount of the luciferase can be determined through its luminous substrate. In this way, the intensity of activation by the compound on the nuclear receptor could be known by observing the luminescence intensity.
The specific operation is described as follows:
The experiment reagents: the compounds to be tested (20 mM, in DMSO, stored at −80° C.).
The hepatocarcinoma cell HepG2 (from ATCC, American Type Culture Collection) was cultured in DMEM medium supplemented with 10% heat-inactivated fetal bovine serum (FBS, Invitogen, Grand Island, N.Y., USA) in a T-75 culture bottle (Greiner, Germany) in a incubator at 37° C., the relative humidity of 100%, and 5% CO2. When the cell culture in the culture bottle reached 80-90% confluency, it was digested with 0.25% Trypsin (with EDTA) for 3 min and inoculated into a 96-well cell culture plate at an inoculating density of 2000 cells/100 μl/well.
In the next day, when the cells in the 96-well culture plate grew up to 50-80% confluency, cell transfection was performed. The cell co-transfection system comprised the FuGene6 transfection agent (Roche Molecular Biochemicals, Indianapolis, Ind., U.S.A.) and 60 ng DNA (long of hRXR, 10 ng of pCMV βGal, 10 ng of the nuclear receptor expression plasmid RXR/PPARδ, 30 ng of GFP fluorescence reporter gene plasmid, respectively).
The cell culture medium was discarded immediately at 24 hours post-transfection and replaced by 200 μl of a fresh DMEM medium containing the medicament to be tested (with 10% FBS treated by activated carbon).
24 h after treatment with the medicament, the cells were lysed with a lysis solution (Cell Culture Lysis buffer, Promega) and centrifuged, and the supernatant was collected. The supernatant was treated with a fluorescence detection kit (Promega) and counted by a fluorescence meter (Ascent Fluoroskan FL reader, Thermo Labsystems, Finland), and the relative intensity of the luciferase was determined. For assaying the β-galactosidase activity used in the experiment as the inner reference (the inner reference calibrating for the transfection efficiency), 50 μl of the supernatant was transferred into a fresh microplate and treated with the Promega kit and read at a wavelength of 405 nm from a microplate reader (Bio-tech Instruments Inc., Winooski, Vt., USA) (Sauerberg, P.; Olsen, G. S.; Jeppesen, L.; Mogensen, J. P. et al., J. Med. Chem., 2007, 50, 1495-1503).
The median effective concentration (EC50) of a sample is a concentration at which the sample has 50% pharmacological effect. This value is one of the important parameters for evaluating pharmacological effects of a compound. In the present screening process, the EC50 of a sample was calculated according to the activation of the receptor by the sample at six different concentrations.

[2] = tested on: high fat fodder obese C57BL/6J mice; test: High fat fodder obese mice: levels of blood lipid and blood glucose; assay type: in vivo; parameters: HDL / GLU / TC / TG: unit not given here; details: mean ± s, n 5
Excerpt: 3 week-old male C57BL/6J mice were chosen as experiment animals, 15 of which were randomly selected to feed with a standard fodder, and the remains were allowed to feed with a high fat fodder, with each of the mice being marked by ear-cutting. The body weights and fodder intake of the mice were weighed every week. […] […], the effects of the medicaments on the levels of blood lipid and blood glucose, body weight, and fodder intake in the animals were observed, while a glucose tolerance test was performed to investigate the effects of the medicaments on the glucose tolerance in the animals.

[3] = tested on: high fat fodder obese C57BL/6J mice; test: High fat fodder obese mice: body weight and food intake; assay type: in vivo
Excerpt: 3 week-old male C57BL/6J mice were chosen as experiment animals, 15 of which were randomly selected to feed with a standard fodder, and the remains were allowed to feed with a high fat fodder, with each of the mice being marked by ear-cutting. The body weights and fodder intake of the mice were weighed every week. […] After the administration of the inventive compounds for four weeks, the effects of the medicaments on the levels of blood lipid and blood glucose, body weight, and fodder intake in the animals were observed, while a glucose tolerance test was performed to investigate the effects of the medicaments on the glucose tolerance in the animals.

[4] = 2 weeks administration, 10 mg/kg
[5] = 2 weeks administration, 30 mg/kg
[6] = 4 weeks administration, 10 mg/kg
[7] = 4 weeks administration, 30 mg/kg

EC50 [1]: 100 nM
Compound: Cc1cc(OC(c2ccccc2)c2nn(-c3ccc(C(F)(F)F)cc3)c(=O)n2C)ccc1SCC(=O)O (centres unmarked) [Compound A-2, 2-(2-methyl-4-(1-(3-(4-methyl-5-oxo-1-(4-trifluoromethyl-phenyl)-4,5-dihydrogen-1H-1,2,4-triazolyl))-benzyloxy)-phenylthio)-acetic acid]

EC50 [1]: 10 nM
Compound: Cc1cc(SC(c2ccccc2)c2nn(-c3ccc(C(F)(F)F)cc3)c(=O)n2C)ccc1OCC(=O)O (centres unmarked) [Compound A-4, 2-(2-methyl-4-(1-(3-(4-methyl-5-oxo-1-(4-trifluoromethyl-phenyl)-4,5-dihydrogen-1H-1,2,4-triazolyl))-benzylthio)-phenoxy)-acetic acid]

EC50 [1]: 340 nM
Compound: CCc1cc(OC(c2ccccc2)c2nn(-c3ccc(C(F)(F)F)cc3)c(=O)n2C)ccc1OCC(=O)O (centres unmarked) [Compound A-5, 2-(2-ethyl-4-(1-(3-(4-methyl-5-oxo-1-(4-trifluoromethyl-phenyl)-4,5-dihydrogen-1H-1,2,4-triazolyl))-benzyloxy)-phenoxy)-acetic acid]

EC50 [1]: 2090 nM
Compound: Cc1cc(OCC(=O)O)ccc1OC(c1ccccc1)c1nn(-c2ccc(C(F)(F)F)cc2)c(=O)n1C (centres unmarked) [Compound A-6, 2-(3-methyl-4-(1-(3-(4-methyl-5-oxo-1-(4-trifluoromethyl-phenyl)-4,5-dihydrogen-1H-1,2,4-triazolyl))-benzyloxy)-phenoxy)-acetic acid]

EC50 [1]: 380 nM
Compound: Cc1cc(OCC(=O)O)ccc1SC(c1ccccc1)c1nn(-c2ccc(C(F)(F)F)cc2)c(=O)n1C (centres unmarked) [Compound A-7, 2-(3-methyl-4-(1-(3-(4-methyl-5-oxo-1-(4-trifluoromethyl-phenyl)-4,5-dihydrogen-1H-1,2,4-triazolyl))-benzylthio)-phenoxy)-acetic acid]

EC50 [1]: 3020 nM
Compound: Cc1cc(SCc2nn(-c3ccc(C(F)(F)F)cc3)c(=O)n2C)ccc1OCC(=O)O [Compound A-8, 2-(2-methyl-4-(3-(4-methyl-5-oxo-1-(4-trifluoromethyl-phenyl)-4,5-dihydrogen-1H-1,2,4-triazolyl)-methylthio)-phenoxy)-acetic acid]

EC50 [1]: 6610 nM
Compound: Cc1cc(OCc2nn(-c3ccc(C(F)(F)F)cc3)c(=O)n2C)ccc1OCC(=O)O [Compound A-9, 2-(2-methyl-4-(3-(4-methyl-5-oxo-1-(4-trifluoromethyl-phenyl)-4,5-dihydrogen-1H-1,2,4-triazolyl)-methoxy)-phenoxy)-acetic acid]

EC50 [1]: 100 nM
Compound: Cc1cc(SC(c2ccccc2)c2nn(-c3ccc(C(F)(F)F)cc3)c(=O)n2C)c(C)cc1OCC(=O)O (centres unmarked) [Compound A-10, 2-(2,5-dimethyl-4-(1-(3-(4-methyl-5-oxo-1-(4-trifluoromethyl-phenyl)-4,5-dihydrogen-1H-1,2,4-triazolyl))-benzylthio)-phenoxy)-acetic acid]

EC50 [1]: 650 nM
Compound: Cc1cc(SCC(=O)O)ccc1OCc1nn(-c2ccc(C(F)(F)F)cc2)c(=O)n1C [Compound A-12, 2-(3-methyl-4-(3-(4-methyl-5-oxo-1-(4-trifluoromethyl-phenyl)-4,5-dihydrogen-1H-1,2,4-triazolyl)-methoxy)-phenylthio)-acetic acid]

EC50 [1]: 20 nM
Compound: Cc1cc(SC(c2ccccc2)c2nn(-c3ccc(C(F)(F)F)cc3)c(=O)n2C)ccc1OC(C)C(=O)O (centres unmarked) [Compound A-13, 2-methyl-2-(2-methyl-4-(1-(3-(4-methyl-5-oxo-1-(4-trifluoromethyl-phenyl)-4,5-dihydrogen-1H-1,2,4-triazolyl))-benzylthio)-phenoxy)-acetic acid]

EC50 [1]: < 1 nM
Compound: CCc1cc(SC(c2ccccc2)c2nn(-c3ccc(C(F)(F)F)cc3)c(=O)n2C)ccc1OCC(=O)O (centres unmarked) [Compound A-14, 2-(2-ethyl-4-(1-(3-(4-methyl-5-oxo-1-(4-trifluoromethyl-phenyl)-4,5-dihydrogen-1H-1,2,4-triazolyl))-benzylthio)-phenoxy)-acetic acid]

EC50 [1]: 20 nM
Compound: Cc1cc(SC(C)(C)C(=O)O)ccc1OC(c1ccccc1)c1nn(-c2ccc(C(F)(F)F)cc2)c(=O)n1C (centres unmarked) [Compound A-15, 2,2-dimethyl-2-(3-methyl-4-(1-(3-(4-methyl-5-oxo-1-(4-trifluoromethyl-phenyl)-4,5-dihydrogen-1H-1,2,4-triazolyl))-benzyloxy)-phenylthio)-acetic acid]

Compound: CCCCCCCCCCC[C@@H](C[C@@H]1OC(=O)[C@H]1CCCCCC)OC(=O)[C@H](CC(C)C)NC=O [Orlistat, reference compound]
GLU [2, 4]: 11.11 ± 1.08
HDL [2, 4]: 3.29 ± 0.27
TC [2, 4]: 3.81 ± 2.56
TG [2, 4]: 0.36 ± 0.09
GLU [2, 5]: 8.81 ± 2.16
HDL [2, 5]: 2.72 ± 0.3
TC [2, 5]: 3.89 ± 0.44
TG [2, 5]: 0.45 ± 0.09
GLU [2, 6]: 11.05 ± 1.09
HDL [2, 6]: 2.63 ± 1.27
TC [2, 6]: 4.24 ± 0.33
TG [2, 6]: 0.28 ± 0.03
GLU [2, 7]: 9.84 ± 1.83
HDL [2, 7]: 2.79 ± 0.35
TC [2, 7]: 3.48 ± 0.54
TG [2, 7]: 0.41 ± 0.04
Food intake ([3]; column 1, 10 mg/kg): 5.88 g
Food intake ([3]; column 1, 30 mg/kg): 6.04 g
Food intake ([3]; column 2, 10 mg/kg): 5.42 g
Food intake ([3]; column 2, 30 mg/kg): 4.66 g
Food intake ([3]; column 3, 10 mg/kg): 6.7 g
Food intake ([3]; column 3, 30 mg/kg): 5.52 g
Food intake ([3]; column 4, 10 mg/kg): 6.64 g
Food intake ([3]; column 4, 30 mg/kg): 7.78 g
Food intake ([3]; column 5, 10 mg/kg): 6.4 g
Food intake ([3]; column 5, 30 mg/kg): 7.92 g
